Experimental data taken from publication PMC7044277 (Nature Communications, 2020).
Several values for one entry are separate records, joined by “and”; a condition that tells them apart may be missing. Identical values can stand only once.

What was measured:
[1] = molecular target: DRD2 (D2 long receptor) wild-type (Homo sapiens, UniProt P14416); experiment: Radioligand competition binding, [3H]-N-methylspiperone, HEK293T membranes
DRD3 wild-type = DRD3 wild-type (Homo sapiens, UniProt P35462); experiment: Radioligand competition binding, [3H]-N-methylspiperone
Chain of DRD3 wild-type (P35462 whole entry): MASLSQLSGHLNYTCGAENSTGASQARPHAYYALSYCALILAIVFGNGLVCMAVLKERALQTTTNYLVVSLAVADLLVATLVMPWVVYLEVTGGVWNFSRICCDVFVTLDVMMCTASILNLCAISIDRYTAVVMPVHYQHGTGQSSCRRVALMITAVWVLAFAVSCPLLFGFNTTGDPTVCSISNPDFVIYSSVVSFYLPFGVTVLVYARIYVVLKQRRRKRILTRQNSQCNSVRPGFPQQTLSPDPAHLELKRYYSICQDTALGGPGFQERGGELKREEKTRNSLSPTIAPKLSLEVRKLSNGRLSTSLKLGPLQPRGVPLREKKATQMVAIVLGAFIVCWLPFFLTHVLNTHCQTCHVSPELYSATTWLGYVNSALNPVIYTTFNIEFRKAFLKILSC

[2] = molecular target: T1, DRD4 (D4.4 variant) wild-type (Homo sapiens, UniProt P21917); experiment: as above; conditions: DRD4; [3H]-methylspiperone (0.8-1.0 nM); read-out: Ki
T1 sequence (P21917 1-419): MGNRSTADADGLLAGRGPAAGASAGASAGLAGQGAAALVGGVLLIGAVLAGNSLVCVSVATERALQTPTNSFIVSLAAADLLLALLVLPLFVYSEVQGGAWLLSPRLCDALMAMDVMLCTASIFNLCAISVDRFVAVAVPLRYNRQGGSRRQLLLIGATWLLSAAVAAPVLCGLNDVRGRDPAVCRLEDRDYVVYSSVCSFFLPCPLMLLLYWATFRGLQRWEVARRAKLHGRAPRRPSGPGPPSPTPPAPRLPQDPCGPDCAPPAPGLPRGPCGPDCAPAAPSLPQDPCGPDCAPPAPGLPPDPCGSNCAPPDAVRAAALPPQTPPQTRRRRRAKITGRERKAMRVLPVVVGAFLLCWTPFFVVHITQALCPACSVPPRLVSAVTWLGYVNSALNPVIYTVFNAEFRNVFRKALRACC

DRD2 (D2 long receptor) [3] = molecular target: T2, DRD2 (D2 long receptor) (Homo sapiens, UniProt P14416); experiment: Gαi/o-mediated cAMP inhibition (GloSensor split-luciferase cAMP reporter), HEK293T; format: cell-based; conditions: for Response, Fig_S11b dose-response: individual replicates;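 for all read-outs here: compounds applied 15 min at room temperature, then luciferin plus 400 nM isoproterenol to raise cAMP through endogenous β2-adrenergic receptors, luminescence read 15 min later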
T2 sequence (P14416 whole entry): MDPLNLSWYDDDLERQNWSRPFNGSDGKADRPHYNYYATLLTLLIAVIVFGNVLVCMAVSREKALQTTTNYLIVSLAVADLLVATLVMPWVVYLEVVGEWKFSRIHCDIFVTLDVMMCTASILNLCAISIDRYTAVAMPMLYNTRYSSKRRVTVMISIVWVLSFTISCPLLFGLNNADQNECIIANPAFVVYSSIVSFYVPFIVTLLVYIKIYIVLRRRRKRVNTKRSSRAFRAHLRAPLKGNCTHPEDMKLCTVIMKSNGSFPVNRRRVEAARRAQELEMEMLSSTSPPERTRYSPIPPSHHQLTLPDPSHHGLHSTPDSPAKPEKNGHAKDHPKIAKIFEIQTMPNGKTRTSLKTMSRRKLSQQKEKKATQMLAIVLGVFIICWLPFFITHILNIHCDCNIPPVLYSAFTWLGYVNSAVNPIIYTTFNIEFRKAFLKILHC

DRD4 (D4.4 variant) [4] = molecular target: T3, DRD4 (D4.4 variant) (Homo sapiens, UniProt P21917); experiment: Gαi/o-mediated cAMP inhibition (GloSensor); format: cell-based; conditions: DRD4; agonist, cAMP inhibition; read-out: EC50 ± SEM
T3 sequence (P21917 1-419): T1 sequence (P21917 1-419)

DRD2 (D2 long receptor) [5] = molecular target: T2, DRD2 (D2 long receptor); experiment: β-arrestin2 recruitment (Tango), HTLA cells; format: cell-based; conditions: for Response, Fig_S11c dose-response: individual replicates
DRD3 = DRD3 (Homo sapiens, UniProt P35462); experiment: β-arrestin2 recruitment (Tango); format: cell-based; conditions: DRD3; Tango; read-out: EC50 ± SEM
Chain of DRD3 (P35462 whole entry): as the sequence (P35462 whole entry) above

DRD4 (D4.4 variant) [6] = molecular target: T3, DRD4 (D4.4 variant); experiment: β-arrestin2 recruitment (Tango); format: cell-based; conditions: DRD4; Tango; read-out: EC50 ± SEM
DRD2 F1103.28A = DRD2 F1103.28A (Homo sapiens, UniProt P14416, F110A); format: binding; design: expressed in transfected cells; host or cells: HEK293T (ATCC CRL-11268); conditions: DRD2 F1103.28A
Chain of DRD2 F1103.28A (P14416 whole entry F110A): as the sequence (P14416 whole entry) above, with F110A counted along it

Chain of DRD2 (D2 long receptor) wild-type (P14416 whole entry): as the sequence (P14416 whole entry) above

Ki ([1]; DRD2, [3H]-methylspiperone (0.8-1.0 nM), read-out: Ki): 2040 nM
pKi ± SEM ([1]; DRD2 wild-type): 5.69±0.06
Ki (DRD3 wild-type; DRD3, [3H]-methylspiperone (0.8-1.0 nM), read-out: Ki): 850 nM
pKi ± SEM (DRD3 wild-type; DRD3 wild-type): 6.07±0.01
Ki [2]: > 10000 nM
EC50 (DRD2 (D2 long receptor) [3]; DRD2, agonist, Gαi/o-mediated cAMP inhibition, read-out: EC50 ± SEM): 46.4 ± 15.4 nM
Emax relative to quinpirole response (DRD2 (D2 long receptor) [3]; DRD2, cAMP inhibition): 96.65%
Response, Fig_S11b dose-response (DRD2 (D2 long receptor) [3]; Log[Drug] -11): 6.507 and 4.611
EC50 (DRD4 (D4.4 variant) [4]): > 10000 nM
Emax relative to quinpirole response (DRD2 (D2 long receptor) [5]; DRD2, Tango): 83.11%
EC50 (DRD2 (D2 long receptor) [5]; DRD2, β-arrestin2 recruitment (Tango), read-out: EC50 ± SEM): 557 ± 129 nM
Response, Fig_S11c dose-response (DRD2 (D2 long receptor) [5]; Log[Drug] -6.52): 31.2199 and 46.2944 and 28.6852
EC50 (DRD3): > 10000 nM
EC50 (DRD4 (D4.4 variant) [6]): > 10000 nM
pKi ± SEM (DRD2 F1103.28A): 6.53±0.31
Ki (DRD2 F1103.28A; read-out: Ki): 300 nM
SMILES: CCCCOc1cccc2cc(C(C)NCC3(O)CCCCC3)oc12.Cl (stereo not drawn) [O6LE6]
Response, Fig_S11b dose-response (DRD2 (D2 long receptor) [3]; Log[Drug] -5): 81.0159 and 81.9991 and 95.2013 and 90.5911 and 100.378 and 91.8314 and 90.3639 and 94.9855 and 86.3213
Response, Fig_S11b dose-response (DRD2 (D2 long receptor) [3]; Log[Drug] -5.52): 88.5768 and 95.2247 and 77.4579 and 98.4012 and 97.1899 and 97.626 and 96.6191 and 98.263 and 92.5248
Response, Fig_S11b dose-response (DRD2 (D2 long receptor) [3]; Log[Drug] -6): 91.3624 and 86.7743 and 72.7996 and 95.3198 and 99.2054 and 99.6124 and 91.2428 and 94.603 and 88.8234
Response, Fig_S11b dose-response (DRD2 (D2 long receptor) [3]; Log[Drug] -6.52): 80.2434 and 83.1695 and 87.1255 and 85.3392 and 85.0097 and 83.4496 and 88.4512 and 85.5769 and 83.1472
Response, Fig_S11b dose-response (DRD2 (D2 long receptor) [3]; Log[Drug] -7): 58.0056 and 50.7491 and 42.2987 and 73.1202 and 72.0543 and 69.6996 and 76.9851 and 77.9363 and 79.6216
Response, Fig_S11b dose-response (DRD2 (D2 long receptor) [3]; Log[Drug] -7.52): 45.2247 and 26.7088 and 25.0468 and 53.9826 and 53.3236 and 57.1802 and 56.5964 and 48.0046 and 46.7638
Response, Fig_S11b dose-response (DRD2 (D2 long receptor) [3]; Log[Drug] -8): 27.6217 and 13.9045 and 1.873 and 27.4516 and 30.7752 and 36.8798 and 38.172 and 42.1216 and 42.4628
Response, Fig_S11b dose-response (DRD2 (D2 long receptor) [3]; Log[Drug] -8.52): 12.8745 and -2.8324 and -17.6966 and 25 and 13.7985 and 29.6899 and 21.5778 and 11.2386 and 28.598
Response, Fig_S11b dose-response (DRD2 (D2 long receptor) [3]; Log[Drug] -9): 19.5459 and 15.9176 and 4.8221 and 21.5698 and 25.5426 and 29.7481 and 11.342 and 13.0583 and 27.4194
Response, Fig_S11b dose-response (DRD2 (D2 long receptor) [3]; Log[Drug] -11.52): 28.839 and 31.7182 and 13.2022 and 1.376 and -1.3857 and 16.4244 and 10.2357 and 2.895 and 29.146
Response, Fig_S11b dose-response (DRD2 (D2 long receptor) [3]; Log[Drug] -12): 23.5955 and 3.886 and -4.2135 and -2.9264 and -5.2713 and 2.829 and 6.638 and 20.6162
response, Fig_S11c dose-response source data (DRD2 (D2 long receptor) [5]; Fig_S11c, Log[Drug] -5, replicate values): 102.612 and 76.914 and 118.815 and 128.686 and 107.344 and 93.7459 and 91.4018 and 94.1354
Response, Fig_S11c dose-response (DRD2 (D2 long receptor) [5]; Log[Drug] -7): 11.3874 and 10.0089 and 10.6537 and 8.17 and 16.7384 and 23.3506 and 16.3825 and 16.4206 and 21.2486
Response, Fig_S11c dose-response (DRD2 (D2 long receptor) [5]; Log[Drug] -7.52): 2.983 and 1.764 and 4.002 and -3.309 and -7.696 and -0.6325 and 11.3698 and 6.994 and 12.6997
Response, Fig_S11c dose-response (DRD2 (D2 long receptor) [5]; Log[Drug] -8): 3.216 and 0.7671 and -0.1186 and 4.58 and -7.813 and 8.0383 and 4.755 and 0.516 and 2.286
Response, Fig_S11c dose-response (DRD2 (D2 long receptor) [5]; Log[Drug] -8.52): 2.679 and 1.071 and -1.473 and 0.4627 and -3.045 and 4.511 and 0.1556 and -1.011
Response, Fig_S11c dose-response (DRD2 (D2 long receptor) [5]; Log[Drug] -9): 0.7411 and 0.1816 and 1.971 and -2.53 and -2.659 and 6.978 and 2.24 and -0.7813 and 0.4791
Response, Fig_S11c dose-response (DRD2 (D2 long receptor) [5]; Log[Drug] -9.52): 1.675 and 0.3261 and 1.23 and 1.988 and 0.5154 and 6.132 and 2.922 and -0.3739 and -1.362
Response, Fig_S11c dose-response (DRD2 (D2 long receptor) [5]; Log[Drug] -10): 0.7745 and 3.454 and 0.4706 and -6.955 and -3.6985 and -1.1362 and 1.072 and 0.3907 and -1.333
Response, Fig_S11c dose-response (DRD2 (D2 long receptor) [5]; Log[Drug] -10.52): 0.1927 and 0.4854 and 0.3409 and -1.124 and 8.703 and 5.11 and 0.478 and 0.806 and 3.44
Response, Fig_S11c dose-response (DRD2 (D2 long receptor) [5]; Log[Drug] -11): 0.4891 and -0.1075 and 0.05188 and -6.3018 and 5.0836 and -3.93 and -2.3709 and 4.648 and -1.497
Response, Fig_S11c dose-response (DRD2 (D2 long receptor) [5]; Log[Drug] -11.52): 2.264 and 2.713 and 0.6374 and -3.324 and 3.804 and -6.217 and 0.5754 and 2.325 and 0.9369
Response, Fig_S11c dose-response (DRD2 (D2 long receptor) [5]; Log[Drug] -12): 0.04817 and -0.3928 and 5.406 and 4.214 and -4.302 and -2.66 and 3.553 and -0.8933
